Consider 14 compounds from US11149018B2, “Substituted N-arylethyl-2-aminoquinoline-4-carboxamides and use thereof” (Bayer Aktiengesellschaft, priority 2017, dated 2021).

Experiment [1] deals with C57Bl6J mice with unilateral ureteral obstruction. Nature of the experiment: Unilateral ureteral obstruction (UUO) in mice (renal fibrosis). It counts as in vivo, mouse. Particulars: 10 days after UUO, mean ± SD, n=10; for SR/FG positive area [%]: SiriusRed/FastGreen collagen staining of kidney; for αSMA positive area [%]: immunohistochemistry of kidney; for Gene expression CTGF / Gene expression Col1α1 / Gene expression Col3α1 / Gene expression Col4α1 / Gene expression IL1-β / Gene expression IL-6 / Gene expression KC / Gene expression MCP-1 / Gene expression TGF-β / Gene expression αSMA: kidney, % of placebo group (=100%). The source says:
B-22. Animal Model of Unilateral Ureteral Obstruction (UUO) in Mice (Renal Fibrosis) Unilateral ureteral obstruction in mice and rats is a widely used animal model for interstitial renal fibrosis (Chevalier et al., Kidney Int. 2009, 75, 1145-1152). Permanent occlusion of the ureter leads, as a result of the sustained accumulation of the urine, to increased inflammatory cell infiltration into the interstitium, to tubular cell death and to irreversible loss of the renal parenchyma. After 5 to 7 days, owing to the elevated deposition of extracellular matrix proteins, interstitial fibrosis arises. Adult male […] mice (Charles River Laboratories, Sulzfeld, Germany) having a weight of 20-22 g were anaesthetized with isoflurane, then, after opening up the abdominal cavity, a ureter was ligated and severed beneath the ligature. In the sham-operated control mice (SHAM), the abdominal cavity was merely opened up, but the ureter was not ligated. […] 10 days after the UUO, the animals were anaesthetized and sacrificed by exsanguination. Thereafter, the kidneys were removed and renal fibrosis was assessed on the basis of the expression of pro-inflammatory and pro-fibrotic markers, and a histological assessment of the renal tissue.

Experiment [2] relates to C57BL/6J mice with CCl4-induced hepatic fibrosis. In words: Carbon tetrachloride (CCl4)-induced hepatic fibrosis in mice. It counts as in vivo, mouse. Here is the method: B-21. Carbon Tetrachloride (CCl4)-Induced Hepatic Fibrosis in Mice
Sixty C57BL/6J mice (Charles River, male, 8 weeks old) were randomized and divided equally into 4 groups (15 mice per group). Group 1 served as the untreated healthy control group, whereas groups 2-4 served as mice suffering from hepatic fibrosis. Hepatic fibrosis was induced by intraperitoneal injection of 50 μl CCl4/olive oil suspension (CCl4+olive oil, 1+9 v/v) three times per week (Monday, Wednesday and Friday) over the entire study period. […] The CCl4-treated mice of group 4 served as group treated with a compound of the formula (I). The oral treatment of group 3 with the vehicle solution and of group 4 with a compound of the formula (I) started on day 1 and was continued twice daily (in the morning and evening) over the complete study period of two weeks. At the end of the study, all animals were sacrificed under anaesthetic, and the livers were removed fixed in 4% buffered formaldehyde solution for the subsequent histological processing and analysis. For this purpose, liver samples for all animals were embedded in paraffin and 3 μm-thick paraffin sections were produced. […] The sections were scanned with 20× enlargement and a light intensity of 4.8 V. The images thus produced were then converted to JPG format, and the red-stained area was quantified by means of ImageJ software (National Institute of Health, USA). […]

Experiment [3] concerns C57Bl6J mice with DQ12 silica-induced pulmonary fibrosis. Nature of the experiment: Silica-induced pulmonary fibrosis in mice, therapeutic chronic 30-day study. It counts as in vivo, mouse. Particulars: for Hydroxyproline [ng/lung]: day 10-30, mean ± SEM. Here is the method:
B-23. Silica-Induced Pulmonary Fibrosis in Mice: Therapeutic Chronic 30-Day Study with FP Antagonists
Adult female C57Bl6J mice (Charles River Laboratories, Sulzfeld, Germany) having a weight of 18-20 g were anaesthetized in a chamber with isoflurane (3% v/v) and treated intratracheally with 2.5 mg of crystalline DQ12 silica dissolved in 70 μL of sterile phosphate-buffered saline. Untreated control mice received the same volume of phosphate-buffered saline. […] 30 days after the installation of silica, the animals were anaesthetized with an intraperitoneal injection of ketamine/medetomidine (50 mg/kg and 0.33 mg/kg) combined with a subcutaneous injection of Temgesic (0.06 mg/kg) and sacrifice by exsanguination. Thereafter, the trachea was cannulated, and the animals' lungs were lavaged three times with 0.5 ml of ice-cold phosphate-buffered saline. Thereafter, the lungs were removed, weighed and shock-frozen in dry ice. […] The data are mean values±SEM of 8-12 animals per group. The statistical analysis was conducted with the unpaired Student's t test. P values<0.05 were considered to be significant.

Experiment [4] deals with T1, FP receptor (Homo sapiens (Human), UniProt P43088). Particulars: least selective of the prostanoid receptors; cited from earlier work.
For experiment [5], the target named is T1, FP receptor. Nature of the experiment: In vitro test of inhibition of human FP receptor activity (PGF2α-induced calcium flux in FP-expressing CHEM1 cells). Particulars: PGF2α 2 nM, some mean values of multiple determinations. The format is cell-based. The essentials:
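FP antagonism in FP-expressing CHEM1 cells loaded with Fluo-8. Compound preincubated 10 min at 37° C, then receptor stimulated with 2 nM (final) PGF2α in calcium-free Tyrode with 2 mM CaCl2.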

T1 sequence (P43088 whole entry): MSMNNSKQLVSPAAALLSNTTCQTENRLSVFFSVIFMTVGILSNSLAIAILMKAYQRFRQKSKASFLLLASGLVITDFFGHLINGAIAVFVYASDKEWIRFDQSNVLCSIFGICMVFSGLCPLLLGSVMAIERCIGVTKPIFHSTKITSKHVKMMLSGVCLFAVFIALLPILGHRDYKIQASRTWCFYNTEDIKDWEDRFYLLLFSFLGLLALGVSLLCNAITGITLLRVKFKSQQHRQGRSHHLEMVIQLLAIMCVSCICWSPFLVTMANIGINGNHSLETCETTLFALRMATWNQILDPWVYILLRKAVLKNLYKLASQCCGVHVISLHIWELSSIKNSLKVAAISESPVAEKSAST

As to `Cc1c(N2CCCC2)nc2ccc(Br)cc2c1C(=O)NCC(CCC(=O)O)c1ccccc1Cl.Cl` (single isomer, unassigned; (+)) [Example 284, (+)-5-({[6-Bromo-3-methyl-2-(pyrrolidin-1-yl)quinolin-4-yl]carbonyl}amino)-4-(2-chlorophenyl)pentanoic acid hydrochloride], in experiment [1] (30 mg/kg), the “SR/FG positive area [%]” value was 38.74 ± 9.12%, the “αSMA positive area [%]” value is 25.19 ± 3.23%, the “Gene expression CTGF” value is recorded as 105.67 ± 52.33% and the “Gene expression Col1α1” value is reported as 76.70 ± 36.22%. Also, in experiment [1] (30 mg/kg), the “Gene expression Col3α1” value came to 103.74 ± 37.60%, the “Gene expression Col4α1” value worked out at 71.15 ± 20.20%, the “Gene expression IL1-β” value is 81.91 ± 31.93% and the “Gene expression IL-6” value stood at 207.04 ± 389.13%. In addition, in experiment [1] (30 mg/kg), the “Gene expression KC” value is listed as 65.02 ± 15.98%, the “Gene expression MCP-1” value is 93.98 ± 26.32%, the “Gene expression TGF-β” value came to 67.57 ± 32.67% and the “Gene expression αSMA” value came to 72.97 ± 39.94%. In experiment [1] (60 mg/kg), the “SR/FG positive area [%]” value is listed as 34.66 ± 7.59%, the “αSMA positive area [%]” value is 22.28 ± 4.04%, the “Gene expression CTGF” value was determined as 102.07 ± 26.99% and the “Gene expression Col1α1” value came out at 38.90 ± 13.11%. Moreover, in experiment [1] (60 mg/kg), the “Gene expression Col3α1” value amounted to 126.15 ± 46.51%, the “Gene expression Col4α1” value is given as 45.97 ± 8.44%, the “Gene expression IL1-β” value is 112.05 ± 71.38% and the “Gene expression IL-6” value worked out at 494.83 ± 850.76%. Besides, in experiment [1] (60 mg/kg), the “Gene expression KC” value came to 50.69 ± 22.02%, the “Gene expression MCP-1” value stood at 117.41 ± 38.15%, the “Gene expression TGF-β” value came out at 31.79 ± 9.06% and the “Gene expression αSMA” value is listed as 51.72 ± 21.33%. For the same compound, in experiment [2] (2-week study in mice with hepatic fibrosis, p<0.01, two-way ANOVA with Dunnett post-hoc test), the “Progression of fibrosis (result in words)” value is listed as “significant reduction in the progression of fibrosis”. Also, the “Sirius red [% liver area]” value in experiment [2] (CCl4 + 100 mg/kg, oral twice daily, 2 weeks, mean ± SD) is reported as 3.51 ± 0.65 % liver area. In experiment [3] (Silica + 10 mg/kg po bid), the “Hydroxyproline [ng/lung]” value was 2341 ± 54.99 (n = 12) ng/lung. Besides, in experiment [3] (Silica + 30 mg/kg po bid), the “Hydroxyproline [ng/lung]” value is 2185 ± 86.79 (n = 12) ng/lung.

Consider `CCCCC[C@H](O)/C=C/[C@H]1C(=O)C[C@H](O)[C@@H]1C/C=C\CCCC(=O)O` [PGD2, prostaglandin D2], for which the “binding affinity to the FP receptor” value at FP receptor [4] is “nanomolar affinities”.

On to `CCCCC[C@H](O)/C=C/[C@H]1[C@H](O)CC(=O)[C@@H]1C/C=C\CCCC(=O)O` [PGE2, prostaglandin E2], for which, at FP receptor [4], the “binding affinity to the FP receptor” value was “nanomolar affinities”.

With `Cc1c(N2CCCC2)nc2ccc(Br)cc2c1C(=O)NCC(CCC(=O)O)c1ccccc1Cl` (single isomer, unassigned; (+)) [Example 35, (+)-5-({[6-bromo-3-methyl-2-(pyrrolidin-1-yl)quinolin-4-yl]carbonyl}amino)-4-(2-chlorophenyl)pentanoic acid], the “Hydroxyproline formation and fibrosis (result in words)” value in experiment [3] (10 and 30 mg/kg po bid, versus silica-treated control) is “significant reduction in the hydroxyproline formation and fibrosis”.

As usually defined, the IC50 is the midpoint of a concentration-inhibition curve. As to `Cc1c(N2CCCC(F)(F)C2)nc2ccc(Br)cc2c1C(=O)NCC(CCC(=O)O)c1c(Cl)ccc(Cl)c1Cl` (single isomer, unassigned; (+)) [Example 178, (+)-5-({[6-Bromo-2-(3,3-difluoropiperidin-1-yl)-3-methylquinolin-4-yl]carbonyl}amino)-4-(2,3,6-trichlorophenyl)pentanoic acid], the IC50 at FP receptor [5] was found to be 56 nM.

On to `Cc1c(N2CCSCC2)nc2ccc(Br)cc2c1C(=O)NCC(CCC(=O)O)c1cc(F)ccc1Cl` (racemic) [Example 11, (+/−)-5-({[6-Bromo-3-methyl-2-(thiomorpholin-4-yl)quinolin-4-yl]carbonyl}amino)-4-(2-chloro-5-fluorophenyl)pentanoic acid], for which the 50% inhibitory concentration (IC50) at FP receptor [5] amounted to 25 nM.

With `Cc1ccccc1C(CCC(=O)O)CNC(=O)c1c(C)c(N2CCCCC2)nc2ccc(Br)cc12` (racemic) [Example 242, (+/−)-5-({[6-Bromo-3-methyl-2-(piperidin-1-yl)quinolin-4-yl]carbonyl}amino)-4-(2-methylphenyl)pentanoic acid], the IC50 on FP receptor [5] is 7.1 nM.

For the compound `Cc1c(N2C[C@@H](F)[C@@H](F)C2)nc2ccc(Br)cc2c1C(=O)NCC(CCC(=O)O)c1ccccc1Cl` (mixture of isomers) [Example 70, (+/−)-5-[({6-Bromo-2-[cis-3,4-difluoropyrrolidin-1-yl]-3-methylquinolin-4-yl}carbonyl)amino]-4-(2-chlorophenyl)pentanoic acid], the IC50 at FP receptor [5] amounted to 16 nM.

On to “(+)-5-[({6-Bromo-3-methyl-2-[(^2H10)piperidin-1-yl]quinolin-4-yl}carbonyl)amino]-4-[2-(trifluoromethyl)phenyl]pentanoic acid [Example 270]”, for which, on FP receptor [5], the IC50 stood at 3.3 nM.

In the case of `Cc1c(N2CCCCC2C)nc2ccc(Br)cc2c1C(=O)NCC(CCC(=O)O)c1ccccc1Cl` (centres unmarked) [Example 108, 5-[({6-Bromo-3-methyl-2-[2-methylpiperidin-1-yl]quinolin-4-yl}carbonyl)amino]-4-(2-chlorophenyl)pentanoic acid], the IC50 on FP receptor [5] is 360 nM.

On to `Cc1c(N2CCCC(F)(F)C2)nc2ccc(Br)cc2c1C(=O)NCC(CCC(=O)O)c1c(F)ccc(F)c1Cl` (single isomer, unassigned; (+)) [Example 217, (+)-5-({[6-Bromo-2-(3,3-difluoropiperidin-1-yl)-3-methylquinolin-4-yl]carbonyl}amino)-4-(2-chloro-3,6-difluorophenyl)pentanoic acid], for which the IC50 at FP receptor [5] worked out at 50 nM.

Regarding `Cc1c(N2CCCCC2)nc2ccc(Br)cc2c1C(=O)NCC(CCC(=O)O)c1cc(F)ccc1F` (racemic) [Example 255, (+/−)-5-({[6-Bromo-3-methyl-2-(piperidin-1-yl)quinolin-4-yl]carbonyl}amino)-4-(2,5-difluorophenyl)pentanoic acid], the half-inhibitory concentration (IC50) at FP receptor [5] was found to be 20 nM.

For `Cc1c(N2CCCC(C)C2)nc2ccc(Br)cc2c1C(=O)NCC(CCC(=O)O)c1ccccc1Cl` (single isomer, unassigned; (+)) [Example 48, (+)-5-[({6-Bromo-3-methyl-2-[3-methylpiperidin-1-yl]quinolin-4-yl}carbonyl)amino]-4-(2-chlorophenyl)pentanoic acid], the IC50 at FP receptor [5] is 1.2 nM.

`Cc1c(N2CCCC(C)C2)nc2ccc(Br)cc2c1C(=O)NCC(CCC(=O)O)c1ccccc1C(F)(F)F` (single isomer, unassigned; (+)) [Example 197, (+)-5-[({6-Bromo-3-methyl-2-[3-methylpiperidin-1-yl]quinolin-4-yl}carbonyl)amino]-4-[2-(trifluoromethyl)phenyl]pentanoic acid]: at FP receptor [5], the IC50 was determined as 21 nM.
